From patent US3954726A, “Double salts of S-adenosil-L-methionine” (Bioresearch Limited, priority 1973, dated 1976) come the findings set out here.

As usually defined, the LD50 is the dose at which mortality reaches 50%. A lower LD50 goes with greater toxicity.

Data set [1] is described as follows: Acute toxicity (DL50) in the mouse. To be noted: in vivo. The text has this:
In particular, the DL50 in the mouse is greater than 6 g/kg/os and 2.5 g/kg/i.p.

The nature of data set [2]: Toxicity, overall statement. Particulars: in vivo.
Data set [3] in a line: Hepatic phospholipids in rats after intoxication with CCl4. Particulars: CCl4 + Ad-Met 15 mg/kg/i.p.; average ± E.S. of 10 values. Format: in vivo, rat. The text has this:
This was confirmed by successive pharmacological tests. […] Hepatic phospholipids in rats after intoxication with CCl4 and treatment with SAM.

Data set [4] in a line: Clinical: Parkinsons disease and Parkinsonisms, in association with Levodopa. Format: in vivo, human. To be noted: Levodopa alone.
The conditions of data set [5]: dry state.
Excerpt: (§1) The figures refer to the percentage of SAM residue after the times indicated:
Data set [6] in a line: Stability with time at 45°C, dry state (percentage of SAM residue). Particulars: same conditions as Table 1.
Excerpt: as §1

Where a name gives a salt, the structure may show the parent alone. Read-outs that look alike come from different tables or passages of the source.

Consider `C[S+](CC[C@H](N)C(=O)O)C[C@H]1O[C@@H](n2cnc3c(N)ncnc32)[C@H](O)[C@@H]1O` (stereo partly drawn) [SAM salt], for which the LD50 was over 2500 mg/kg in data set [1] (ip) and over 6000 mg/kg in data set [1] (po, os). Besides, the toxicity result in data set [2] was “absolutely free from acute toxicity, chronic toxicity, local intolerance or secondary effects”.
As for `C[S+](CC[C@H](N)C(=O)[O-])C[C@H]1O[C@@H](n2cnc3c(N)ncnc32)[C@H](O)[C@@H]1O` (stereo partly drawn) [Ad-Met, reference compound], the Total phospholipids in data set [3] turned out to be 19.9 ± 0.92 mg/g.
Consider `N[C@@H](Cc1ccc(O)c(O)c1)C(=O)O` [Levodopa, reference compound], for which the Parkinson tremor entry in data set [4] was “cannot be modified”.
On to `C[S+](CC[C@H](N)C(=O)O)C[C@H]1O[C@@H](n2cnc3c(N)ncnc32)[C@H](O)[C@@H]1O` (stereo partly drawn) [Chloride], for which the “percentage of SAM residue” value in data set [5] (720 h) stood at 20%.
`C[S+](CC[C@H](N)C(=O)O)C[C@H]1O[C@@H](n2cnc3c(N)ncnc32)[C@H](O)[C@@H]1O.Cc1ccc(S(=O)(=O)O)cc1.O=S(=O)(O)O.O=S(=O)([O-])O` (stereo partly drawn) [di-sulphate mono-p.toluenesulphonate]: the “stability values compared with di-sulphate di-p.toluenesulphonate” value in data set [6] was “completely equivalent”.
On to `C[S+](CC[C@H](N)C(=O)O)C[C@H]1O[C@@H](n2cnc3c(N)ncnc32)[C@H](O)[C@@H]1O` (stereo partly drawn) [Sulphate], for which the entries for the “percentage of SAM residue” value in data set [5] (720 h) and in data set [5] (1440 h) were 50% and 5%, respectively.
